Assay results from paper PMC9954146, “Anti-Leukaemic Activity of Rilpivirine Is Mediated by Aurora A Kinase Inhibition” (Cancers, 2023).

Key:
Assay in all cases: Kinase panel
Format in all cases: biochemical
Conditions in all cases: read-out: % Residual Activity
[1] = molecular target: T1, GSK3β(h) (Homo sapiens, UniProt P49841)
T1 construct: purchased Eurofins (KinaseProfiler)
How it was run: (§1)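 For each panel kinase, rilpivirine inhibition is measured by radioactive phosphate transfer with ATP at that enzyme's Km, […].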

[2] = molecular target: T2, TGFBR2(h) (Homo sapiens, UniProt P37173)
T2 construct: purchased Eurofins (KinaseProfiler)
How it was run: as §1

[3] = molecular target: T3, SAPK2a(T106M)(h) (Homo sapiens, UniProt Q16539, T106M)
T3 construct: purchased Eurofins (KinaseProfiler)
How it was run: as §1

[4] = molecular target: T4, Lck(h) (Homo sapiens, UniProt P06239)
T4 construct: purchased Eurofins (KinaseProfiler)
How it was run: as §1

[5] = molecular target: PIP5K1a(h) (Homo sapiens, UniProt Q99755)
How it was run: as §1

[6] = molecular target: T5, PhKγ1(h) (Homo sapiens, UniProt Q16816)
T5 construct: purchased Eurofins (KinaseProfiler)
How it was run: as §1

[7] = molecular target: T6, CaMKIδ(h) (Homo sapiens, UniProt Q8IU85)
T6 construct: purchased Eurofins (KinaseProfiler)
How it was run: as §1

[8] = molecular target: T7, MEKK2(h) (Homo sapiens, UniProt Q9Y2U5)
T7 construct: purchased Eurofins (KinaseProfiler)
How it was run: as §1

[9] = molecular target: PIP5K1g(h) (Homo sapiens, UniProt O60331)
How it was run: as §1

[10] = molecular target: T8, ALK(h) (Homo sapiens, UniProt Q9UM73)
T8 construct: purchased Eurofins (KinaseProfiler)
How it was run: as §1

[11] = molecular target: T9, MAPK2(m) (Mus musculus, UniProt P63085)
T9 construct: purchased Eurofins (KinaseProfiler)
How it was run: as §1

[12] = molecular target: T10, ROCK-II(r) (Rattus norvegicus, UniProt Q62868)
T10 construct: purchased Eurofins (KinaseProfiler)
How it was run: as §1

[13] = molecular target: T11, SIK(h) (Homo sapiens, UniProt P57059)
T11 construct: purchased Eurofins (KinaseProfiler)
How it was run: as §1

[14] = molecular target: PI3 Kinase (p110a(E545K)/p85a)(h) (Homo sapiens, UniProt P42336, E545K)
How it was run: as §1

[15] = molecular target: T12, EphB3(h) (Homo sapiens, UniProt P54753)
T12 construct: purchased Eurofins (KinaseProfiler)
How it was run: as §1

[16] = molecular target: T13, TAO1(h) (Homo sapiens, UniProt Q7L7X3)
T13 construct: purchased Eurofins (KinaseProfiler)
How it was run: as §1

[17] = molecular target: T14, MLK3(h) (Homo sapiens, UniProt Q16584)
T14 construct: purchased Eurofins (KinaseProfiler)
How it was run: as §1

[18] = molecular target: T15, EphA4(h) (Homo sapiens, UniProt P54764)
T15 construct: purchased Eurofins (KinaseProfiler)
How it was run: as §1

[19] = molecular target: T16, Ron(h) (Homo sapiens, UniProt Q04912)
T16 construct: purchased Eurofins (KinaseProfiler)
How it was run: as §1

[20] = molecular target: T17, MEKK3(h) (Homo sapiens, UniProt Q99759)
T17 construct: purchased Eurofins (KinaseProfiler)
How it was run: as §1

[21] = molecular target: PI3 Kinase (p110b/p85a)(m) (Mus musculus, UniProt Q8BTI9)
How it was run: as §1

[22] = molecular target: T18, AMPKα2(h) (Homo sapiens, UniProt P54646)
T18 construct: purchased Eurofins (KinaseProfiler)
How it was run: as §1

[23] = molecular target: T19, CDK13/cyclinK(h) (Homo sapiens, UniProt Q14004)
T19 construct: purchased Eurofins (KinaseProfiler)
How it was run: as §1

[24] = molecular target: T20, CaMKIγ(h) (Homo sapiens, UniProt Q96NX5)
T20 construct: purchased Eurofins (KinaseProfiler)
How it was run: as §1

[25] = molecular target: T21, FGFR3(h) (Homo sapiens, UniProt P22607)
T21 construct: purchased Eurofins (KinaseProfiler)
How it was run: as §1

[26] = molecular target: T22, CDK3/cyclinE(h) (Homo sapiens, UniProt Q00526)
T22 construct: purchased Eurofins (KinaseProfiler)
How it was run: as §1

[27] = molecular target: T23, JAK1(h) (Homo sapiens, UniProt P23458)
T23 construct: purchased Eurofins (KinaseProfiler)
How it was run: as §1

[28] = molecular target: T24, Met(Y1248D)(h) (Homo sapiens, UniProt P08581, Y1230D)
T24 construct: purchased Eurofins (KinaseProfiler)
How it was run: as §1

[29] = molecular target: T25, PASK(h) (Homo sapiens, UniProt Q96RG2)
T25 construct: purchased Eurofins (KinaseProfiler)
How it was run: as §1

[30] = molecular target: T26, mTOR/FKBP12(h) (Homo sapiens, UniProt P42345)
T26 construct: purchased Eurofins (KinaseProfiler)
How it was run: as §1

[31] = molecular target: T27, PAK6(h) (Homo sapiens, UniProt Q9NQU5)
T27 construct: purchased Eurofins (KinaseProfiler)
How it was run: as §1

[32] = molecular target: T28, MYLK2(h) (Homo sapiens, UniProt Q9H1R3)
T28 construct: purchased Eurofins (KinaseProfiler)
How it was run: as §1

[33] = molecular target: T29, AMPKα1(h) (Homo sapiens, UniProt Q13131)
T29 construct: purchased Eurofins (KinaseProfiler)
How it was run: as §1

[34] = molecular target: T30, eEF-2K(h) (Homo sapiens, UniProt O00418)
T30 construct: purchased Eurofins (KinaseProfiler)
How it was run: as §1

[35] = molecular target: T31, Aurora-B(h) (Homo sapiens, UniProt Q96GD4)
T31 construct: purchased Eurofins (KinaseProfiler)
How it was run: as §1

[36] = molecular target: T32, PKCβI(h) (Homo sapiens, UniProt P05771)
T32 construct: purchased Eurofins (KinaseProfiler)
How it was run: as §1

[37] = molecular target: T33, TRB2(h) (Homo sapiens, UniProt Q92519)
T33 construct: purchased Eurofins (KinaseProfiler)
How it was run: as §1

[38] = molecular target: T34, JAK3(h) (Homo sapiens, UniProt P52333)
T34 construct: purchased Eurofins (KinaseProfiler)
How it was run: as §1

T31 sequence (Q96GD4 whole entry): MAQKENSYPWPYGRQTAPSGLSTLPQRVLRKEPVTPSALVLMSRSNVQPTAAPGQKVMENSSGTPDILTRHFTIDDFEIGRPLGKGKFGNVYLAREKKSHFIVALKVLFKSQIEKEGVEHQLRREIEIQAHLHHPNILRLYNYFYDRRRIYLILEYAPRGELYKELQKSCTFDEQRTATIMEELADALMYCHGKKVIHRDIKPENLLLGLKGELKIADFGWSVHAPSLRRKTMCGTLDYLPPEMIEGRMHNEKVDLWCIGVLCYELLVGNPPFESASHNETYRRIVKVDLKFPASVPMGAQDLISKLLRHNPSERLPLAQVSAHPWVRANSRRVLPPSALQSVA
T22 sequence (Q00526 whole entry): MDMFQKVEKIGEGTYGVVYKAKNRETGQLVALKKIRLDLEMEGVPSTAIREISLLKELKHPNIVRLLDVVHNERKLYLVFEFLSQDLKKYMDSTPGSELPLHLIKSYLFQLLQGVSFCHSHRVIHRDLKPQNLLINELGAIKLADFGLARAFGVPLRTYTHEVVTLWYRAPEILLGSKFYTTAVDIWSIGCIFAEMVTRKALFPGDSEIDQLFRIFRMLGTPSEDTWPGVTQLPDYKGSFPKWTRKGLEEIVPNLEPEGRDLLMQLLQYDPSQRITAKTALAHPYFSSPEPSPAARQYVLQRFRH
T22 sequence (P24864 whole entry partner): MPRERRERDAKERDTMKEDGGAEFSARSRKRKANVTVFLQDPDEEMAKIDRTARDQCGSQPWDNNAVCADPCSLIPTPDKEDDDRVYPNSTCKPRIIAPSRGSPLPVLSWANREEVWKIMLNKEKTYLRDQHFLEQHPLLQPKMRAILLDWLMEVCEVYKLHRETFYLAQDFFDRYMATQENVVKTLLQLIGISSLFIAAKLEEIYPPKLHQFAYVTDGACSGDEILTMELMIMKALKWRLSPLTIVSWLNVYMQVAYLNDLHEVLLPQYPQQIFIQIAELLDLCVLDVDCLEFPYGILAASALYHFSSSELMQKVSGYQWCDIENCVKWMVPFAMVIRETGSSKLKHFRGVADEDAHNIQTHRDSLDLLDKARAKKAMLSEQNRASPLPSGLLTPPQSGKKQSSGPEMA
T6 sequence (Q8IU85 whole entry): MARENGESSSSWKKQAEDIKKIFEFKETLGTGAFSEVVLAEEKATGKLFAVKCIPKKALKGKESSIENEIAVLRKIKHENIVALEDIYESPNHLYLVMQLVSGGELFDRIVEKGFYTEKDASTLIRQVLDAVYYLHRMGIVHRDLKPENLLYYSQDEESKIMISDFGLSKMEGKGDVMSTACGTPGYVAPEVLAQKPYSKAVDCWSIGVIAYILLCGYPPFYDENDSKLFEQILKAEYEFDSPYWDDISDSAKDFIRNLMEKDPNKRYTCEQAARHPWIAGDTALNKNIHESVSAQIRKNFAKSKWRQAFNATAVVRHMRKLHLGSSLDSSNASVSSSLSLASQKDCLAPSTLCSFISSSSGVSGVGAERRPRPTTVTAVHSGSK
T1 sequence (P49841 whole entry): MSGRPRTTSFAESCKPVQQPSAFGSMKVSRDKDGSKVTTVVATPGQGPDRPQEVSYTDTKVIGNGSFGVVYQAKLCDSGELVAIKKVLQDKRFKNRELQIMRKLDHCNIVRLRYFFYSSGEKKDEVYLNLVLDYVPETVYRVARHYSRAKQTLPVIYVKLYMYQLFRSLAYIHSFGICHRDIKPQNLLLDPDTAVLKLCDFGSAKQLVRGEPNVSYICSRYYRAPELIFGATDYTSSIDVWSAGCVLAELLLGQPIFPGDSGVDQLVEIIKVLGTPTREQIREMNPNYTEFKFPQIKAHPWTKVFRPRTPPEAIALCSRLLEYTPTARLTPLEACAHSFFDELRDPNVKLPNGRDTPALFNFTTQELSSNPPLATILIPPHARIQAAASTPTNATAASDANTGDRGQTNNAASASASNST
T29 sequence (Q13131 whole entry): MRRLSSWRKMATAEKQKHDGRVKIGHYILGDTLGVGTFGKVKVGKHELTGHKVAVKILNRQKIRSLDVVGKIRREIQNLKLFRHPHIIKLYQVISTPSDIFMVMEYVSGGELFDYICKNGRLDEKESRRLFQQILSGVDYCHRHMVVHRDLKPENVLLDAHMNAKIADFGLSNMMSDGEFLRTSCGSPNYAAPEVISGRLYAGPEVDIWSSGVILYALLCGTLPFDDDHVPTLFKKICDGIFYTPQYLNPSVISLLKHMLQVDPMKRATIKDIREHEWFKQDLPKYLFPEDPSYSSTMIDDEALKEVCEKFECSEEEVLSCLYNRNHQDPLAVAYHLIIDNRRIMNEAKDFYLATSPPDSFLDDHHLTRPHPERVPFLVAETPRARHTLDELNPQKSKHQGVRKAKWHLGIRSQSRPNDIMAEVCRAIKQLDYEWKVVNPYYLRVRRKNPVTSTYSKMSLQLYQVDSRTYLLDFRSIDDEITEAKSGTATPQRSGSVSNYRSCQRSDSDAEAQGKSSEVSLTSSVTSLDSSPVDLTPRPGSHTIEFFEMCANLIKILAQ
T29 sequence (Q9Y478 whole entry partner): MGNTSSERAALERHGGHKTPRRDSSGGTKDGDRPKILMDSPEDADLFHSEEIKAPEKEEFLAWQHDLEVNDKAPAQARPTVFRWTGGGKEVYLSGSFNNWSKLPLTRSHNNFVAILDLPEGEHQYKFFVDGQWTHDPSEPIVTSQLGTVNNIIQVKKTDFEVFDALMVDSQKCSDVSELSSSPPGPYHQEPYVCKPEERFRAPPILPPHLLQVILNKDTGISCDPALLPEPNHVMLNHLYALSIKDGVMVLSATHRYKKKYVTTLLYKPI
T29 sequence (P54619 whole entry partner): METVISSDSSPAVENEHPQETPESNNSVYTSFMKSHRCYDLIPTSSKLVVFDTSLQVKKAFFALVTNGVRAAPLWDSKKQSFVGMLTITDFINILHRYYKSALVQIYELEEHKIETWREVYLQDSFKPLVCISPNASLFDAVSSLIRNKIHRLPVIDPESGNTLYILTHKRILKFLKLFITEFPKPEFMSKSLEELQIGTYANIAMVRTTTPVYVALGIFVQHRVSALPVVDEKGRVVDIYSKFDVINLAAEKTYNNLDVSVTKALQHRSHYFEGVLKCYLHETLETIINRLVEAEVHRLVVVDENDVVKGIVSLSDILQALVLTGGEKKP
Chain of PI3 Kinase (p110a(E545K)/p85a)(h) (P42336 whole entry E545K): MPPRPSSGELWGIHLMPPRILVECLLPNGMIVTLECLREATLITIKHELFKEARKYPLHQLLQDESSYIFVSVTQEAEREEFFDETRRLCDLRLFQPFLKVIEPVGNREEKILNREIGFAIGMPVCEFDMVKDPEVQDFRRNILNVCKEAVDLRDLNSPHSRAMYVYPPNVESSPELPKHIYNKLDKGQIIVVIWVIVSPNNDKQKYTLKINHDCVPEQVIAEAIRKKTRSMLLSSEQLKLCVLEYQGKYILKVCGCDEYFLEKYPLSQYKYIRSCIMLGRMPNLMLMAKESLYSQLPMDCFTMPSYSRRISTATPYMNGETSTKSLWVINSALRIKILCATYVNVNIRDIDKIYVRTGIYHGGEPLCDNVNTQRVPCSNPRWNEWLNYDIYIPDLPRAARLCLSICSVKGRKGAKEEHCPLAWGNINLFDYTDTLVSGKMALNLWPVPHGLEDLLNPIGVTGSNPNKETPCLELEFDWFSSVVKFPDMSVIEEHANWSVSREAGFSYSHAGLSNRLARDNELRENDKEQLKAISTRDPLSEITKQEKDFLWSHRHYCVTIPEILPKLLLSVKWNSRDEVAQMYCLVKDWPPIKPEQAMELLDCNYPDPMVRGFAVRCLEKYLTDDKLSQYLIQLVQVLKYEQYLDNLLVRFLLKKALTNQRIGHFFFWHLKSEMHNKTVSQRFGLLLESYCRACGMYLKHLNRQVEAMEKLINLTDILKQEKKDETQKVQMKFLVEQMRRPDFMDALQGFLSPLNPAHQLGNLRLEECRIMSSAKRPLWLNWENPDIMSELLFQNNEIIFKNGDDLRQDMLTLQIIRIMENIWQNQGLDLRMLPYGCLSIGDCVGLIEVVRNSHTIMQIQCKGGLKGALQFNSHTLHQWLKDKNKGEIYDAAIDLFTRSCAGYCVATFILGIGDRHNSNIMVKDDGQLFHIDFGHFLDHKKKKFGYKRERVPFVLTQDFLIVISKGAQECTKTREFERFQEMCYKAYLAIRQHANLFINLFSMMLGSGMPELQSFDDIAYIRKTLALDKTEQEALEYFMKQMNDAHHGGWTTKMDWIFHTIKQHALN
Chain of PI3 Kinase (p110a(E545K)/p85a)(h) (P27986 whole entry partner): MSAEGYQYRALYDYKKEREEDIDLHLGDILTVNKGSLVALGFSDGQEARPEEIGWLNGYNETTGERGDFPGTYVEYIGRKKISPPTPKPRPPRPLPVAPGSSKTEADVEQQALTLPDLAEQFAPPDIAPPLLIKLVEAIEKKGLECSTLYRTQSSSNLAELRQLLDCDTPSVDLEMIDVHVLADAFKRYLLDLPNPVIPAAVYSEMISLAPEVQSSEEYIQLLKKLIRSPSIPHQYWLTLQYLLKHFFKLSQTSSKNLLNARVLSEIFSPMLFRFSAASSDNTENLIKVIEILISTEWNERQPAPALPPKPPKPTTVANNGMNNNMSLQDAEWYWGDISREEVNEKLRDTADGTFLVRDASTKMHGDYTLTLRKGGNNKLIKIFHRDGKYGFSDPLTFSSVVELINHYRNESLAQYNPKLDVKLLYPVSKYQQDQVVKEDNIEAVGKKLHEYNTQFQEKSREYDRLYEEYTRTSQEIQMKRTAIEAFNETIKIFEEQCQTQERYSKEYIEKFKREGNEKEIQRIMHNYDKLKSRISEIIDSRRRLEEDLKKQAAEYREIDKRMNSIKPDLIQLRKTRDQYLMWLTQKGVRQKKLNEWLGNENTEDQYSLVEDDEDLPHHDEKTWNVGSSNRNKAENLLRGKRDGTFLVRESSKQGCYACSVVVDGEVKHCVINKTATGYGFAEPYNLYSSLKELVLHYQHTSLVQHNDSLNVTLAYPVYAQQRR

Compound `Cc1cc(/C=C/C#N)cc(C)c1Nc1ccnc(Nc2ccc(C#N)cc2)n1` [rilpivirine, (E)-4-((4-((4-(2-cyanoethenyl)-2,6-dimethylphenyl)amino)pyrimidin-2-yl)amino)benzonitrile] has a remaining activity at 1 µM [1] of 84%, a remaining activity at 1 µM [2] of 94% and a remaining activity at 1 µM [3] of 90%. It also gave a remaining activity at 1 µM [4] of 33%, a remaining activity at 1 µM [5] of 96% and a remaining activity at 1 µM [6] of 80%. It also gave a remaining activity at 1 µM [7] of 100%, a remaining activity at 1 µM [8] of 104% and a remaining activity at 1 µM [9] of 76%. For the same compound, the remaining activity at 1 µM [10] was 80%, the remaining activity at 1 µM [11] was 92% and the remaining activity at 1 µM [12] was 94%. It also gave a remaining activity at 1 µM [13] of 66%, a remaining activity at 1 µM [14] of 98% and a remaining activity at 1 µM [15] of 88%. The remaining activity at 1 µM [16] was 41%, the remaining activity at 1 µM [17] was 81% and the remaining activity at 1 µM [18] was 93%. The remaining activity at 1 µM [19] was 85%, the remaining activity at 1 µM [20] was 72% and the remaining activity at 1 µM [21] was 98%. For the same compound, the remaining activity at 1 µM [22] was 48%, the remaining activity at 1 µM [23] was 82% and the remaining activity at 1 µM [24] was 95%. For the same compound, the remaining activity at 1 µM [25] was 98%, the remaining activity at 1 µM [26] was 90% and the remaining activity at 1 µM [27] was 79%. The remaining activity at 1 µM [28] was 100%, the remaining activity at 1 µM [29] was 85% and the remaining activity at 1 µM [30] was 100%. The remaining activity at 1 µM [31] was 117%, the remaining activity at 1 µM [32] was 79% and the remaining activity at 1 µM [33] was 44%. It also gave a remaining activity at 1 µM [34] of 92%, a remaining activity at 1 µM [35] of 85% and a remaining activity at 1 µM [36] of 89%. For the same compound, the remaining activity at 1 µM [37] was 65% and the remaining activity at 1 µM [38] was 68%.
